# Laboratory results taken from patent US12660819B2, “Herbicidal derivatives” (SYNGENTA CROP PROTECTION AG, priority 2020, dated 2026).
# What was measured:
# Assay type in all cases: in vivo
# [1] = system: Amaranthus retoflexus (AMARE); experiment: Pre-emergence Test (glasshouse, percentage damage to the plant); settings: 1000 g/ha unless otherwise stated, five-point scale
# [2] = system: Ipomoea hederacea (IPOHE); experiment: as above; settings: 1000 g/ha unless otherwise stated, five-point scale
# [3] = system: Abutilon theophrasti (ABUTH); experiment: as above; settings: 1000 g/ha unless otherwise stated, five-point scale
# [4] = system: Setaria faberi (SETFA); experiment: as above; settings: 1000 g/ha unless otherwise stated, five-point scale
# [5] = system: Abutilon theophrasti (ABUTH); experiment: Post-emergence Test (glasshouse, percentage damage to the plant); settings: post-emergence spray, 1000 g/ha unless otherwise stated, evaluated after 13 days
# In short: (§1)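 Percentage damage to the plant, assessed 13 days after application and scored 1–5 in 20% bands. Pots sown in standard soil received compound at 1000 g/ha unless otherwise stated, sprayed under 24/16 °C, 14 h light, 65% humidity.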
# [6] = system: Setaria faberi (SETFA); experiment: as above; settings: post-emergence spray, 1000 g/ha unless otherwise stated, evaluated after 13 days
# In short: as §1
# [7] = system: Echinochloa crus-galli (ECHCG); experiment: as above; settings: post-emergence spray, 1000 g/ha unless otherwise stated, evaluated after 13 days
# In short: as §1
# [8] = system: Amaranthus retoflexus (AMARE); experiment: as above; settings: post-emergence spray, 1000 g/ha unless otherwise stated, evaluated after 13 days
# In short: as §1
# [9] = system: Zea mays (ZEAMX); experiment: as above; settings: post-emergence spray, 1000 g/ha unless otherwise stated, evaluated after 13 days
# In short: as §1
# [10] = system: Ipomoea hederacea (IPOHE); experiment: as above; settings: post-emergence spray, 1000 g/ha unless otherwise stated, evaluated after 13 days
# In short: as §1
# [11] = system: Zea mays (ZEAMX); experiment: Pre-emergence Test (glasshouse, percentage damage to the plant); settings: 1000 g/ha unless otherwise stated, five-point scale
# [12] = system: Echinochloa crus-galli (ECHCG); experiment: as above; settings: 1000 g/ha unless otherwise stated, five-point scale
SMILES,"percentage damage to the plant, AMARE [1]","percentage damage to the plant, IPOHE [2]","percentage damage to the plant, ABUTH [3]","percentage damage to the plant, SETFA [4]","Post-emergence Test ABUTH, percentage damage to the plant (five-point scale) [5]","Post-emergence Test SETFA, percentage damage to the plant (five-point scale) [6]","Post-emergence Test ECHCG, percentage damage to the plant (five-point scale) [7]","Post-emergence Test AMARE, percentage damage to the plant (five-point scale) [8]","Post-emergence Test ZEAMX, percentage damage to the plant (five-point scale) [9]","Post-emergence Test IPOHE, percentage damage to the plant (five-point scale) [10]","percentage damage to the plant, ZEAMX [11]","percentage damage to the plant, ECHCG [12]"
"CCn1c(C)c(-c2ccc(C#N)cc2)c(=O)c(C(=O)O)c1-c1ccc(Cl)c(Cl)n1 [Compound 146, 5-(4-cyanophenyl)-2-(5,6-dichloro-2-pyridyl)-1-ethyl-6-methyl-4-oxo-oyridine-3-carboxylic acid]",1 (1=0-20%),0,1 (1=0-20%),4 (4=61-80%),3 (3=41-60%),4 (4=61-80%),4 (4=61-80%),2 (2=21-40%),3 (3=41-60%),4 (4=61-80%),1 (1=0-20%),4 (4=61-80%)
"CCn1c(C)c(-c2cccc(C#N)c2)c(=O)c(C(=O)O)c1-c1ccc(Cl)c(Cl)n1 [Compound 147, 5-(3-cyanophenyl)-2-(5,6-dichloro-2-pyridyl)-1-ethyl-6-methyl-4-oxo-pyridine-3-carboxylic acid]",0,0,0,0,2 (2=21-40%),2 (2=21-40%),2 (2=21-40%),0,2 (2=21-40%),2 (2=21-40%),0,0
"CCn1c(C)c(-c2cccc(Cl)c2)c(=O)c(C(=O)O)c1-c1ccc(Cl)c(Cl)n1 [Compound 149, 5-(3-chlorophenyl)-2-(5,6-dichloro-2-pyridyl)-1-ethyl-6-methyl-4-oxo-pyridine-3-carboxylic acid]",0,0,0,0,1 (1=0-20%),0,0,1 (1=0-20%),1 (1=0-20%),2 (2=21-40%),0,0
"CCn1c(C)c(-c2cccc(C(F)(F)F)c2)c(=O)c(C(=O)O)c1-c1ccc(Cl)c(Cl)n1 [Compound 150, 2-(5,6-dichloro-2-pyridyl)-1-ethyl-6-methyl-4-oxo-5-[3-(trifluoromethyl)phenyl] pyridine-3-carboxylic acid]",0,0,0,0,0,1 (1=0-20%),1 (1=0-20%),0,1 (1=0-20%),2 (2=21-40%),1 (1=0-20%),0
"CCn1c(C)c(-c2ccc(C(F)(F)F)cc2)c(=O)c(C(=O)O)c1-c1ccc(Cl)c(Cl)n1 [Compound 151, 2-(5,6-dichloro-2-pyridyl)-1-ethyl-6-methyl-4-oxo-5-[4-(trifluoromethyl)phenyl] pyridine-3-carboxylic acid]",1 (1=0-20%),5 (5=81-100%),1 (1=0-20%),4 (4=61-80%),3 (3=41-60%),4 (4=61-80%),3 (3=41-60%),0,2 (2=21-40%),3 (3=41-60%),2 (2=21-40%),4 (4=61-80%)
"CCOC(=O)c1c(-c2ccc(F)c(F)c2)n(CC)c(C)c(-c2ccc(Cl)cc2)c1=O [Compound 152, ethyl 5-(4-chlorophenyl)-2-(3,4-difluorophenyl)-1-ethyl-6-methyl-4-oxo-pyridine-3-carboxylate]",0,0,0,0,0,0,0,0,0,0,0,0
"CCn1c(C)c(-c2ccc(Cl)cc2F)c(=O)c(C(=O)O)c1-c1ccc(Cl)c(Cl)c1 [Compound 153, 5-(4-chloro-2-fluoro-phenyl)-2-(3,4-dichlorophenyl)-1-ethyl-6-methyl-4-oxo-pyridine-3-carboxylic acid]",5 (5=81-100%),4 (4=61-80%),5 (5=81-100%),5 (5=81-100%),5 (5=81-100%),5 (5=81-100%),5 (5=81-100%),5 (5=81-100%),5 (5=81-100%),5 (5=81-100%),4 (4=61-80%),5 (5=81-100%)
"CCn1c(C)c(-c2ccc(Cl)cc2OC)c(=O)c(C(=O)O)c1-c1ccc(Cl)c(Cl)c1 [Compound 154, 5-(4-chloro-2-methoxy-phenyl)-2-(3,4-dichlorophenyl)-1-ethyl-6-methyl-4-oxo-pyridine-3-carboxylic acid]",1 (1=0-20%),3 (3=41-60%),3 (3=41-60%),4 (4=61-80%),4 (4=61-80%),4 (4=61-80%),4 (4=61-80%),4 (4=61-80%),3 (3=41-60%),4 (4=61-80%),2 (2=21-40%),5 (5=81-100%)
"CCn1c(C)c(-c2ccc(F)cc2C)c(=O)c(C(=O)O)c1-c1ccc(Cl)c(Cl)c1 [Compound 155, 2-(3,4-dichlorophenyl)-1-ethyl-5-(4-fluoro-2-methyl-phenyl)-6-methyl-4-oxo-pyridine-3-carboxylic acid]",1 (1=0-20%),1 (1=0-20%),2 (2=21-40%),5 (5=81-100%),4 (4=61-80%),4 (4=61-80%),4 (4=61-80%),3 (3=41-60%),4 (4=61-80%),4 (4=61-80%),1 (1=0-20%),5 (5=81-100%)
"CCn1c(C)c(-c2ccc(Cl)cc2C)c(=O)c(C(=O)O)c1-c1ccc(Cl)c(Cl)c1 [Compound 156, 5-(4-chloro-2-methyl-phenyl)-2-(3,4-dichlorophenyl)-1-ethyl-6-methyl-4-oxo-pyridine-3-carboxylic acid]",1 (1=0-20%),1 (1=0-20%),2 (2=21-40%),4 (4=61-80%),4 (4=61-80%),4 (4=61-80%),4 (4=61-80%),3 (3=41-60%),4 (4=61-80%),4 (4=61-80%),0,5 (5=81-100%)
